Assay results taken from PMC3353973 (PLoS ONE, 2012).
Numbered stars: 1 amine (or outer) side, 2 acyl side, 3 side chain; on linkers, the order of the positions; unused ones are H or OH. Bridge positions count the residues as written; N and C are the ends. I, II: the chains in the order shown. X1 = CC(C)CCC[C@@H](C)[C@H]1CC[C@H]2[C@@H]3CC=C4C[C@@H](OCCN(CCNC(=O)CCOCCOCCOCCOCCNC(=O)CCCN5C(=O)CC([*:1])C5=O)CCNC(=O)CCOCCOCCOCCOCCNC(=O)CCCN5C(=O)CC([*:2])C5=O)CC[C@]4(C)[C@H]3CC[C@]12C

Settings: hamster, in vivo

I: Ac-VALDPIDISIVLNKAKSDLEESKEWIRRSNGKLDSIGSGSGC-NH2 / II: Ac-VALDPIDISIVLNKAKSDLEESKEWIRRSNGKLDSIGSGSGC-NH2 (linker I:42-II:42 via X1) [HPIV-P4]
Apparent toxicity in mock-infected animals: did not result in any apparent toxicity
